In patent US20250345169A1, “DEVICES FOR PROVIDING TISSUE SUPPORT DURING BREAST RECONSTRUCTION, AND SYSTEMS AND METHODS THEREOF” (Melodi Health, Inc., priority 2023, published 2025):

Conditions: in vivo

CO[C@H]1/C=C/O[C@@]2(C)Oc3c(C)c(O)c4c(O)c(c(/C=N/N5CCN(C)CC5)c(O)c4c3C2=O)NC(=O)/C(C)=C\C=C\[C@H](C)[C@H](O)[C@@H](C)[C@@H](O)[C@@H](C)[C@H](OC(C)=O)[C@@H]1C [Rifampin]
systemic plasma level: below detection limits

CN(C)c1ccc(O)c2c1C[C@H]1C[C@H]3[C@H](N(C)C)C(O)=C(C(N)=O)C(=O)[C@@]3(O)C(O)=C1C2=O [Minocycline]
systemic plasma level: below detection limits
